Source: ChEMBL document CHEMBL1201862, “PubChem BioAssay data set” (2004)
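Test compounds were applied to cells in 96-well plates for 48 hours at 5 doses. GI50 is the concentration that inhibits growth by half.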 Calls of active or inactive are those of the source. Cut-off read from the data, not from the text of the source: active = GI50 up to about 1.1 µM and inactive = higher.

Experiments:
Assay in all cases: DTP human tumour cell line panel, 48 h
786-0 = tested on: 786-0
A498 = tested on: A498
A549 = tested on: A549
ACHN = tested on: ACHN
BT-549 = tested on: BT-549
CAKI-1 = tested on: CAKI-1
CCRF-CEM = tested on: CCRF-CEM
COLO 205 = tested on: COLO 205
EKVX = tested on: EKVX
HCC 2998 = tested on: HCC 2998
HCT-116 = tested on: HCT-116
HCT-15 = tested on: HCT-15
HL-60 = tested on: HL-60
HOP-62 = tested on: HOP-62
HOP-92 = tested on: HOP-92
HT-29 = tested on: HT-29
Hs-578T = tested on: Hs-578T
IGROV-1 = tested on: IGROV-1
K562 = tested on: K562
KM12 = tested on: KM12
LOX IMVI = tested on: LOX IMVI
M14 = tested on: M14
MCF7 = tested on: MCF7
MDA-MB-231 = tested on: MDA-MB-231
MDA-N = tested on: MDA-N
MOLT-4 = tested on: MOLT-4
Malme-3M = tested on: Malme-3M
NCI-H226 = tested on: NCI-H226
NCI-H23 = tested on: NCI-H23
NCI-H460 = tested on: NCI-H460
NCI/ADR-RES = tested on: NCI/ADR-RES
OVCAR-3 = tested on: OVCAR-3
OVCAR-4 = tested on: OVCAR-4
OVCAR-5 = tested on: OVCAR-5
OVCAR-8 = tested on: OVCAR-8
PC-3 = tested on: PC-3
RXF 393 = tested on: RXF 393
SF-295 = tested on: SF-295
SF-539 = tested on: SF-539
SK-MEL-28 = tested on: SK-MEL-28
SK-MEL-2 = tested on: SK-MEL-2
SK-MEL-5 = tested on: SK-MEL-5
SK-OV-3 = tested on: SK-OV-3
SN12C = tested on: SN12C
SNB-19 = tested on: SNB-19
SNB-75 = tested on: SNB-75
SR = tested on: SR
SW-620 = tested on: SW-620
TK-10 = tested on: TK-10
U-251 = tested on: U-251
UACC-257 = tested on: UACC-257
UACC-62 = tested on: UACC-62
UO-31 = tested on: UO-31
MDA-MB-435 = tested on: MDA-MB-435
NCI-H522 = tested on: NCI-H522
RPMI-8226 = tested on: RPMI-8226
SF-268 = tested on: SF-268
T47D = tested on: T47D

CCOC(=O)N(NC(=O)NC(C)C)c1ccccc1
GI50 (786-0): > 100 µM (inactive) | GI50 (A498): > 100 µM (inactive) | GI50 (A549): > 100 µM (inactive) | GI50 (ACHN): > 100 µM (inactive) | GI50 (BT-549): > 100 µM (inactive) | GI50 (CAKI-1): > 100 µM (inactive) | GI50 (CCRF-CEM): > 100 µM (inactive) | GI50 (COLO 205): > 100 µM (inactive) | GI50 (EKVX): > 100 µM (inactive) | GI50 (HCC 2998): 84.1 µM (inactive) | GI50 (HCT-116): > 100 µM (inactive) | GI50 (HCT-15): > 100 µM | GI50 (HL-60): 60.1 µM (inactive) | GI50 (HOP-62): > 100 µM (inactive) | GI50 (HOP-92): > 100 µM (inactive) | GI50 (HT-29): > 100 µM (inactive) | GI50 (Hs-578T): > 100 µM (inactive) | GI50 (IGROV-1): > 100 µM (inactive) | GI50 (K562): > 100 µM (inactive) | GI50 (KM12): > 100 µM (inactive) | GI50 (LOX IMVI): > 100 µM (inactive) | GI50 (M14): > 100 µM (inactive) | GI50 (MCF7): > 100 µM (inactive) | GI50 (MDA-MB-231): > 100 µM (inactive) | GI50 (MDA-N): > 100 µM (inactive) | GI50 (MOLT-4): > 100 µM (inactive) | GI50 (Malme-3M): > 100 µM (inactive) | GI50 (NCI-H226): > 100 µM (inactive) | GI50 (NCI-H23): > 100 µM (inactive) | GI50 (NCI-H460): > 100 µM (inactive) | GI50 (NCI/ADR-RES): > 100 µM (inactive) | GI50 (OVCAR-3): > 100 µM (inactive) | GI50 (OVCAR-4): > 100 µM (inactive) | GI50 (OVCAR-5): > 100 µM (inactive) | GI50 (OVCAR-8): > 100 µM (inactive) | GI50 (PC-3): > 100 µM (inactive) | GI50 (RXF 393): > 100 µM (inactive) | GI50 (SF-295): > 100 µM (inactive) | GI50 (SF-539): > 100 µM (inactive) | GI50 (SK-MEL-28): > 100 µM (inactive) | GI50 (SK-MEL-2): > 100 µM (inactive) | GI50 (SK-MEL-5): > 100 µM (inactive) | GI50 (SK-OV-3): > 100 µM (inactive) | GI50 (SN12C): > 100 µM (inactive) | GI50 (SNB-19): > 100 µM (inactive) | GI50 (SNB-75): > 100 µM (inactive) | GI50 (SR): > 100 µM (inactive) | GI50 (SW-620): > 100 µM (inactive) | GI50 (TK-10): > 100 µM (inactive) | GI50 (U-251): > 100 µM (inactive) | GI50 (UACC-257): > 100 µM (inactive) | GI50 (UACC-62): > 100 µM (inactive) | GI50 (UO-31): > 100 µM (inactive)

CC1Cn2c(nc3ccccc32)NC1=O (stereo not drawn)
GI50 (786-0): > 100 µM (inactive) | GI50 (A498): > 100 µM (inactive) | GI50 (A549): > 100 µM (inactive) | GI50 (ACHN): > 100 µM (inactive) | GI50 (BT-549): > 100 µM (inactive) | GI50 (CAKI-1): > 100 µM (inactive) | GI50 (CCRF-CEM): > 100 µM (inactive) | GI50 (COLO 205): > 100 µM (inactive) | GI50 (EKVX): > 100 µM (inactive) | GI50 (HCT-116): > 100 µM (inactive) | GI50 (HCT-15): > 100 µM | GI50 (HL-60): > 100 µM (inactive) | GI50 (HOP-62): > 100 µM (inactive) | GI50 (HOP-92): > 100 µM (inactive) | GI50 (HT-29): > 100 µM (inactive) | GI50 (Hs-578T): > 100 µM (inactive) | GI50 (IGROV-1): > 100 µM (inactive) | GI50 (K562): > 100 µM (inactive) | GI50 (KM12): > 100 µM (inactive) | GI50 (LOX IMVI): > 100 µM (inactive) | GI50 (M14): > 100 µM (inactive) | GI50 (MCF7): > 100 µM (inactive) | GI50 (MDA-MB-231): > 100 µM (inactive) | GI50 (MDA-MB-435): > 100 µM (inactive) | GI50 (MDA-N): > 100 µM (inactive) | GI50 (MOLT-4): > 100 µM (inactive) | GI50 (Malme-3M): 58.2 µM (inactive) | GI50 (NCI-H226): > 100 µM (inactive) | GI50 (NCI-H23): > 100 µM (inactive) | GI50 (NCI-H460): > 100 µM (inactive) | GI50 (NCI-H522): > 100 µM (inactive) | GI50 (NCI/ADR-RES): > 100 µM (inactive) | GI50 (OVCAR-3): > 100 µM (inactive) | GI50 (OVCAR-4): > 100 µM (inactive) | GI50 (OVCAR-5): > 100 µM (inactive) | GI50 (OVCAR-8): > 100 µM (inactive) | GI50 (PC-3): > 100 µM (inactive) | GI50 (RPMI-8226): > 100 µM (inactive) | GI50 (RXF 393): > 100 µM (inactive) | GI50 (SF-268): > 100 µM (inactive) | GI50 (SF-295): > 100 µM (inactive) | GI50 (SF-539): > 100 µM (inactive) | GI50 (SK-MEL-2): > 100 µM (inactive) | GI50 (SK-MEL-5): > 100 µM (inactive) | GI50 (SK-OV-3): > 100 µM (inactive) | GI50 (SNB-19): > 100 µM (inactive) | GI50 (SNB-75): > 100 µM (inactive) | GI50 (SR): > 100 µM (inactive) | GI50 (SW-620): > 100 µM (inactive) | GI50 (T47D): > 100 µM (inactive) | GI50 (TK-10): > 100 µM (inactive) | GI50 (U-251): > 100 µM (inactive) | GI50 (UACC-257): > 100 µM (inactive) | GI50 (UACC-62): > 100 µM (inactive) | GI50 (UO-31): > 100 µM (inactive)
